The text below walks through data of patent US20250154193A1, “STEROID COMPOUND, AND PREPARATION METHOD THEREFOR AND APPLICATION THEREOF” (CHOLESGEN (SHANGHAI) CO., LTD., priority 2022, published 2025).

The test system of this assay is SREBP pathway. Description: SREBP luciferase reporter gene system (SRE-luciferase assay) in Huh-7/SRE-Luc cells. It is filed as cell-based. The conditions noted are these: Homo sapiens, sterol-deficient medium, compound treatment 16 hours, luciferase/GFP ratio. As to the method: Huh-7/SRE-Luc, a human hepatocellular carcinoma cell line, was grown in a culture medium containing DMEM, 10% fetal bovine serum, 100 units/mL penicillin, 100 µg/mL streptomycin, and 200 μg/mL G418.
The Huh-7/SRE-Luc cell line is a human hepatocellular carcinoma cell line Huh-7 stably expressing LDLR promoter-luciferase and green fluorescent protein (GFP). The LDLR promoter region contains a sterol regulatory element (SRE) that can effectively and sensitively respond to the regulation of the transcription factor SREBP. The GFP signal serves as an internal reference to indicate changes in cell number. Therefore, this cell line can be used to screen for active small molecules that regulate the SREBP signaling pathway. […] Cells were incubated in a sterol-deficient medium (5% lipoprotein-deficient serum, 2 μM Lovastatin, 10 μM mevalonate) and treated with corresponding concentrations of compounds for 16 hours. After compound treatment, the cells were lysed with lysis buffer (E397A, Promega), followed by the addition of luciferase substrate (E1500, Promega). The SRE-driven luciferase activity was measured using a BioTek Synergy HTX microplate reader (including but not limited to this type of instrument). The fluorescence intensity of enhanced green fluorescent protein (EGFP) was also measured using the BioTek microplate reader (including but not limited to this type of instrument) and used as an internal reference. The ratio of SRE-driven luciferase activity to GFP fluorescence intensity was used as an indicator of SREBP pathway activity. The test data of each test compound was analyzed using Prism software to obtain the IC50 parameter of the compound.
The inhibitory effect of the compounds of the present disclosure on the SREBP pathway was tested by the method of bioassay example 2. The concentration gradient of each compound was designed as 0.01, 0.03, 0.1, 0.3, 1.0, 3.0, and […], with DMSO as a vehicle control.
As a reminder, the IC50 is the concentration needed to halve the response being measured. As for `C[C@H](CCN1CCc2ccccc2C1=O)[C@H]1CC[C@H]2[C@@H]3CC[C@H]4C[C@@H](O)CC[C@]4(C)[C@H]3CC[C@]12C` [compound 224], the IC50 is over 10 µM.

With `C[C@H](CCCC(C)(C)O)[C@H]1CC[C@H]2[C@@H]3CC(=O)C4(O)C[C@@H](O)CC[C@]4(C)[C@H]3CC[C@]12C` (some centres unmarked) [compound 225, 3P,5,25-trihydroxycholest-6-one], the IC50 was 0.667 µM.

For the compound `C[C@H](CCCC(C)(C)O)[C@H]1CC[C@H]2[C@@H]3CC(O)C4(F)C[C@@H](O)CC[C@]4(C)[C@H]3CC[C@]12C` (some centres unmarked) [compound 226], the IC50 is 46.6 µM.

`C[C@H](CCCC(C)(C)O)[C@H]1CC[C@H]2[C@@H]3CC(C#N)C4(O)C[C@@H](O)CC[C@]4(C)[C@H]3CC[C@]12C` (some centres unmarked) [compound 227]: the IC50 came out at 1.33 µM.

In the case of `C[C@H](CCCC(C)(C)O)[C@H]1CC[C@H]2[C@@H]3C(O)C[C@H]4[C@@H](O)[C@@H](O)CC[C@]4(C)[C@H]3CC[C@]12C` (stereo partly drawn) [compound 231, cholest-3β,4p,7,25-tetraol], the IC50 turned out to be 1.03 µM.

Consider `C[C@H](CCCC(O)C(F)(F)F)[C@H]1CC[C@H]2[C@@H]3CC[C@H]4[C@@H](O)[C@@H](O)CC[C@]4(C)[C@H]3CC[C@]12C` (stereo partly drawn) [compound 232, 24-(2,2,2-trifluoro-1-hydroxyethyl)-5α-cholan-3β,4β-diol], for which the IC50 turned out to be 0.084 µM.

As for `C[C@H](CCCC(O)C1CC1)[C@H]1CC[C@H]2[C@@H]3CC[C@H]4[C@@H](O)[C@@H](O)CC[C@]4(C)[C@H]3CC[C@]12C` (stereo partly drawn) [compound 233, 24-[cyclopropyl(hydroxy)methyl]-5α-cholan-3β,4β-diol], the IC50 turned out to be 0.232 µM.

Turning to `C[C@H](CCCC(O)c1ccccc1F)[C@H]1CC[C@H]2[C@@H]3CC[C@H]4[C@@H](O)[C@@H](O)CC[C@]4(C)[C@H]3CC[C@]12C` (some centres unmarked) [compound 234], the IC50 was determined as 0.36 µM.

`C[C@H](CCCC(C)(C)O)[C@H]1CC[C@H]2[C@@H]3CC(=O)[C@H]4[C@@H](O)[C@@H](O)CC[C@]4(C)[C@H]3CC[C@]12C` [compound 235, 25-hydroxy-4β-hydroxy-3β-hydroxy-5α-cholest-6-one]: the IC50 stood at 10.8 µM.

Turning to `C[C@H](CCCC(C)(C)O)[C@H]1CC[C@@]2(C)[C@@H]3C(O)C[C@H]4C(C)(C)[C@@H](O)CC[C@]4(C)[C@H]3CC[C@]12C` (stereo partly drawn) [compound 237, (1R,3aS,5aR,7S,9aR,11aR)-1-[(2R)-6-hydroxy-6-methylheptan-2-yl]-3a,6,6,9a,11a-pentamethylhexadecahydro-1H-cyclopenta[1,2-α]phenanthrene-4,7-diol], the IC50 stood at 7.04 µM.

As for `C[C@H](CCCC(C)(C)O)[C@H]1CC[C@H]2[C@@H]3C[C@H](O)[C@H]4C[C@@H](O)CC[C@]4(C)[C@H]3CC[C@]12C` [compound 240, cholest-30,6a,25-triol], the IC50 is 0.67 µM.

Turning to `CCC(O)CCC[C@@H](C)[C@H]1CC[C@H]2[C@@H]3CC[C@H]4[C@@H](O)[C@@H](O)CC[C@]4(C)[C@H]3CC[C@]12C` (stereo partly drawn) [compound 241, 24-(1-hydroxypropyl)-5α-cholan-3β,4β-diol], the IC50 was found to be 0.328 µM.

With `C[C@H](CCCC(C)(C)O)[C@H]1CC[C@H]2[C@@H]3C(=O)C[C@H]4[C@@H](O)[C@@H](O)CC[C@]4(C)[C@H]3CC[C@]12C` [compound 242, 25-hydroxy-4β-hydroxy-3β-hydroxy-5α-cholest-7-one], the IC50 came out at 0.556 µM.

For `C[C@H](CCCC(C)(C)O)[C@H]1CC[C@H]2[C@@H]3CC(O)[C@H]4[C@@H](O)[C@@H](O)CC[C@]4(C)[C@H]3CC[C@]12C` (stereo partly drawn) [compound 244, cholest-3β,4p,6,25-tetraol], the IC50 came out at 3.76 µM.

Take `C[C@H](CCCC1(O)CC1)[C@H]1CC[C@H]2[C@@H]3CC[C@H]4[C@@H](O)[C@@H](O)CC[C@]4(C)[C@H]3CC[C@]12C` [compound 245, (1R,3aS,5aR,6R,7S,9aR,11aR)-1-[(2R)-5-(hydroxycyclopropyl)pentan-2-yl]-9a,11a-dimethylhexadecahydro-1H-cyclopenta[1,2-a]phenanthrene-6,7-diol]: the IC50 stood at 0.192 µM.

For the compound `C[C@H](CCCC(C)(C)O)[C@H]1CC[C@H]2[C@@H]3CC[C@H]4C(O)(C(F)(F)F)[C@@H](O)CC[C@]4(C)[C@H]3CC[C@]12C` (stereo partly drawn) [compound 246, 4-(trifluoromethyl)-5α-cholest-3β,4,25-triol], the IC50 was 0.988 µM.

As to `C[C@H](CCCC(O)c1ccccc1F)[C@H]1CC[C@H]2[C@@H]3CC[C@H]4C[C@@H](O)CC[C@]4(C)[C@H]3CC[C@]12C` (stereo partly drawn) [compound 251, 24-[(2-fluorophenyl)(hydroxy)methyl]-5α-cholan-3β-ol], the IC50 is 0.321 µM.

`C[C@H](CCCC1(O)CC1)[C@H]1CC[C@H]2[C@@H]3CC[C@H]4C[C@@H](O)CC[C@]4(C)[C@H]3CC[C@]12C` [compound 253, 24-(hydroxycyclopropyl)-5α-cholan-3β-ol]: the IC50 was 0.187 µM.

In the case of `C[C@H](CCCC(C)(C)O)[C@H]1CC[C@H]2[C@@H]3CC[C@H]4C(C)(O)[C@@H](O)CC[C@]4(C)[C@@]3(C)CC[C@]12C` (stereo partly drawn) [compound 254, 4-methyl-5α-cholest-3β,4,25-triol], the IC50 was 6.19 µM.

Turning to `C[C@H](CCCC(C)(C)O)[C@H]1CC[C@H]2[C@@H]3CC(=O)[C@H]4C[C@@H](O)CC[C@]4(C)[C@H]3CC[C@]12C` [compound 255, 3P,25-dihydroxy-5α-cholest-6-one], the IC50 stood at 0.452 µM.

Take `C[C@H](CCCC(C)(C)O)[C@H]1CC[C@H]2[C@@H]3CCC4(F)C[C@@H](O)CC[C@]4(C)[C@H]3CC[C@]12C` (stereo partly drawn) [compound 266, 5-fluorocholest-3β,25-diol]: the IC50 came out at 0.176 µM.

Turning to `C[C@H](CCN(C)C(=O)c1ccccc1F)[C@H]1CC[C@H]2[C@@H]3CC[C@H]4C[C@@H](O)CC[C@]4(C)[C@H]3CC[C@]12C` [compound 268, 2-fluoro-N-[(3R)-3-[(1R,3aS,3bR,5aS,7S,9aS,9bS,11aR)-7-hydroxy-9a,11a-dimethylhexadecahydro-1H-cyclopenta[1,2-a]phenanthren-1-yl]butyl]-N-methylbenzamide], the IC50 was determined as 0.825 µM.

As to `C[C@H](CCCC(O)c1ccccc1F)[C@H]1CC[C@H]2[C@@H]3C(=O)C[C@H]4[C@@H](O)[C@@H](O)CC[C@]4(C)[C@H]3CC[C@]12C` (stereo partly drawn) [compound 271, 24-[(2-fluorophenyl)(hydroxy)methyl]-4β-hydroxy-3β-hydroxy-5α-cholan-7-one], the IC50 was 0.139 µM.

With `C[C@H](CCCC(C)(C)O)[C@H]1CC[C@H]2[C@@H]3C[C@H](O)[C@H]4[C@@H](O)[C@@H](O)CC[C@]4(C)[C@H]3CC[C@]12C` [compound 272, 5α-cholest-3β,4P,6α,25-tetraol], the IC50 is 20.1 µM.

Regarding `C[C@H](CCCC(C)(C)O)[C@H]1CC[C@H]2[C@@H]3CCC4(O)C(=O)[C@@H](O)CC[C@]4(C)[C@H]3CC[C@]12C` (some centres unmarked) [compound 276, 3P,5,25-trihydroxycholest-4-one], the IC50 is 0.522 µM.

Turning to `C[C@H](CCCC(C)(O)c1ccccc1F)[C@H]1CC[C@H]2[C@@H]3CC[C@H]4[C@@H](O)[C@@H](O)CC[C@]4(C)[C@H]3CC[C@]12C` (stereo partly drawn) [compound 278, 24-[1-(2-fluorophenyl)-1-hydroxyethyl]-5α-cholan-3β,4β-diol], the IC50 is 0.106 µM.

As to `C[C@H](CCCC(O)c1cc(F)cc(F)c1)[C@H]1CC[C@H]2[C@@H]3CC[C@H]4[C@@H](O)[C@@H](O)CC[C@]4(C)[C@H]3CC[C@]12C` (stereo partly drawn) [compound 282, 24-[(3,5-difluorophenyl)(hydroxy)methyl]-5α-cholan-3β,4β-diol], the half-inhibitory concentration (IC50) worked out at 0.117 µM.

Turning to `C[C@H](CCCC(C)(C)O)[C@H]1CC[C@H]2[C@@H]3/C(=N/O)C[C@H]4C[C@@H](O)CC[C@]4(C)[C@H]3CC[C@]12C` [compound 285, [(1R,3aS,3bR,4E,5aS,7S,9aS,9bS,11aR)-7-hydroxy-1-[(2R)-6-hydroxy-6-methylheptan-2-yl]-9a,11a-dimethylhexadecahydro-1H-cyclopenta[1,2-a]phenanthren-4-ylidene]hydroxylamine], the IC50 came to 0.793 µM.

On to `C[C@H](CCCC(O)c1ccccc1C(F)(F)F)[C@H]1CC[C@H]2[C@@H]3CC[C@H]4[C@@H](O)[C@@H](O)CC[C@]4(C)[C@H]3CC[C@]12C` (stereo partly drawn) [compound 286, 24-{hydroxy[2-(trifluoromethyl)phenyl]methyl}-5α-cholan-30,40-diol], for which the IC50 came out at 0.575 µM.
